The values that follow come from patent US20240279215A1 (Cytokinetics, Incorporated, priority 2022, published 2024).

By EC50 is commonly meant the concentration giving half of the maximal effect.

This test deals with human NAMPT (Homo sapiens (Human), UniProt P43490). Put plainly: NMN fluorescence biochemical assay (human recombinant NAMPT enzyme assay). Put shortly: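 NMN formed was detected by fluorescence (Ex/Em 355/460 nm) after acetophenone, KOH and formic acid derivatization. The cell-free reaction ran 60 min at ambient temperature with 6 nM human NAMPT, 150 μM nicotinamide, 20 μM PRPP, 2.5 mM ATP, pH 7.2 HEPES, and compound dose responses.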
human NAMPT, sequence (P43490 whole entry): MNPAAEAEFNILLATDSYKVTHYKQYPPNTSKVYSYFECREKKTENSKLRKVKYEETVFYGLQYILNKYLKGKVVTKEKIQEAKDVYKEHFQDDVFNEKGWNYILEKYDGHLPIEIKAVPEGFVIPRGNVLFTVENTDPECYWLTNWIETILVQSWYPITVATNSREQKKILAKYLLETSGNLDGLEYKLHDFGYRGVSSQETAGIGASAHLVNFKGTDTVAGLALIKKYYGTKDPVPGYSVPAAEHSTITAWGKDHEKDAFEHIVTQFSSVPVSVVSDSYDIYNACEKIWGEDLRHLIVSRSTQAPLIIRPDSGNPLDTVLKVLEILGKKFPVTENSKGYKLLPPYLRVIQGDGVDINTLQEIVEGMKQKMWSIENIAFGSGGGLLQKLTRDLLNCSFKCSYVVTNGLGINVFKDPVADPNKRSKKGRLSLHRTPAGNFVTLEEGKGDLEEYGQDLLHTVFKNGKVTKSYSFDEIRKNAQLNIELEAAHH

Turning to `CN(C)S(=O)(=O)N1CCC(Cc2ccc(NC(=O)OCc3cnco3)cc2)CC12CC2` (stereo not drawn) [Compound 440, oxazol-5-ylmethyl (4-((4-(N,N-dimethylsulfamoyl)-4-azaspiro[2.5]octan-7-yl)methyl)phenyl)carbamate], the “AC1.4 Human” value was found to be 0.21 µM and the EC50 is 3.53 µM.
For the molecule `O=C(Nc1ccc(CC(=O)N2CC[C@H](O)C2)cc1)OCc1ccc(Cl)cc1` [Compound 319, (4-chlorophenyl)methyl N-(4-{2-[(3S)-3-hydroxypyrrolidin-1-yl]-2-oxoethyl}phenyl)carbamate], the “AC1.4 Human” value worked out at 6.50 µM and the concentration for a half-maximal effect (EC50) amounted to 40.8 µM.
Turning to `C[C@H](NC(=O)C1CC2(C1)CC(F)(F)C2)c1ccc(NC(=O)OCc2cnco2)cc1` [Compound 22, 1,3-oxazol-5-ylmethyl N-{4-[(1S)-1-({6,6-difluorospiro[3.3]heptan-2-yl}formamido)ethyl]phenyl}carbamate], the “AC1.4 Human” value came to 0.32 µM and the half-maximal effective concentration (EC50) came to 10.1 µM.
The like results for `CC(=O)N1CC(OCc2ccc(NC(=O)OCc3ccc(Cl)cc3)cc2)C1` [Compound 16, 4-chlorobenzyl (4-(((1-acetylazetidin-3-yl)oxy)methyl)phenyl)carbamate] were, in that order, 0.25 µM and 3.5 µM.
As to `CC(C)(C)OC(=O)N1CC(OCc2ccc(NC(=O)OCc3ccc(Cl)cc3)cc2)C1` [Compound 288, tert-butyl 3-{[4-({[(4-chlorophenyl)methoxy]carbonyl}amino)phenyl]methoxy}azetidine-1-carboxylate], the “AC1.4 Human” value was determined as 3.88 µM and the EC50 was found to be 3.45 µM.
The like results for `O=C(Nc1ccc(CC(=O)N2CCC(F)CC2)cc1)OCc1ccc(Cl)cc1` [Compound 212, (4-chlorophenyl)methyl N-{4-[2-(4-fluoropiperidin-1-yl)-2-oxoethyl]phenyl}carbamate] were, in that order, 1.93 µM and 10.2 µM.
The like results for `O=C(Nc1ccc(CC2CCN(C3COC3)CC2)c(F)c1)OCc1cnco1` [Compound 452, oxazol-5-ylmethyl (3-fluoro-4-((1-(oxetan-3-yl)piperidin-4-yl)methyl)phenyl)carbamate] were, in that order, 0.18 µM and 13 µM.
The matching figures for `Cc1noc(Cc2ccc(NC(=O)OCc3ccc(Cl)cc3)cc2)n1` [Compound 344, (4-chlorophenyl)methyl N-{4-[(3-methyl-1,2,4-oxadiazol-5-yl)methyl]phenyl}carbamate]: 13.04 µM and 34 µM.
Consider `CC1CCN(C(=O)N[C@@H](C)c2ccc(NC(=O)OCc3ccc(Cl)cc3)cc2)CC1` [Compound 145, 4-chlorobenzyl (S)-(4-(1-(4-methylpiperidine-1-carboxamido)ethyl)phenyl)carbamate], for which the “AC1.4 Human” value was found to be 1.19 µM and the EC50 was determined as 8.23 µM.
The like results for `N#Cc1ccc(COC(=O)Nc2ccc(Cc3ccncc3)cc2)cc1` [Compound 306, 4-cyanobenzyl (4-(pyridin-4-ylmethyl)phenyl)carbamate] were, in that order, 4.97 µM and 13.9 µM.
The like results for `CN(Cc1ccc(NC(=O)OCc2ccc(Cl)cc2)cc1)C(=O)c1ccnn1C` [Compound 50, (4-chlorophenyl)methyl N-(4-{[N-methyl-1-(2-methylpyrazol-3-yl)formamido]methyl}phenyl)carbamate] were, in that order, 0.50 µM and 0.89 µM.
The like results for `CCc1ncoc1C(=O)NCc1ccc(NC(=O)OCc2ccc(Cl)cc2)cc1` [Compound 347, (4-chlorophenyl)methyl N-(4-{[(4-ethyl-1,3-oxazol-5-yl)formamido]methyl}phenyl)carbamate] were, in that order, 13.92 µM and 34.8 µM.
Regarding `O=C(Nc1ccc(Cc2ccncc2)cc1)OCc1ccncn1` [Compound 349, pyrimidin-4-ylmethyl (4-(pyridin-4-ylmethyl)phenyl)carbamate], the “AC1.4 Human” value amounted to 15.55 µM and the half-maximal effective concentration (EC50) was determined as 26 µM.
`COc1ccc(COC(=O)Nc2ccc(CNC(=O)c3ccc(C)nc3)cc2)cc1` [Compound 53, (4-methoxyphenyl)methyl N-(4-{[(6-methylpyridin-3-yl)formamido]methyl}phenyl)carbamate]: the “AC1.4 Human” value is 0.51 µM and the concentration giving a half-maximal response (EC50) came out at 5.89 µM.
The matching figures for `Cn1nccc1C(=O)NCc1ccc(NC(=O)OCc2ccc(Cl)cc2)cc1` [Compound 205, (4-chlorophenyl)methyl N-(4-{[(2-methylpyrazol-3-yl)formamido]methyl}phenyl)carbamate]: 1.84 µM and 10.1 µM.
Turning to `CCn1nccc1C(=O)N[C@@H](C)c1ccc(NC(=O)OCc2ccc(Cl)cc2)cc1` [Compound 101, (4-chlorophenyl)methyl N-{4-[(1S)-1-[(2-ethylpyrazol-3-yl)formamido]ethyl]phenyl}carbamate], the “AC1.4 Human” value amounted to 0.82 µM and the EC50 stood at 4.14 µM.
The matching figures for `COC(=O)N1CCC(Cc2ccc(NC(=O)OCc3ccc(Cl)cc3)cc2)CC1` [Compound 98, methyl 4-(4-((((4-chlorobenzyl)oxy)carbonyl)amino)benzyl)piperidine-1-carboxylate]: 0.78 µM and 1.49 µM.
The matching figures for `O=C(Nc1ccc(C2CCN(C3COC3)CC2)cc1)OCc1cnco1` [Compound 313, 1,3-oxazol-5-ylmethyl N-{4-[1-(oxetan-3-yl)piperidin-4-yl]phenyl}carbamate]: 5.55 µM and 25.6 µM.
For the molecule `O=C(Nc1ccc(CNC(=O)c2ccc(C(F)F)nc2)cc1)OCc1ccc(Cl)cc1` [Compound 185, (4-chlorophenyl)methyl N-[4-({[6-(difluoromethyl)pyridin-3-yl]formamido}methyl)phenyl]carbamate], the “AC1.4 Human” value turned out to be 1.59 µM and the half-maximal effective concentration (EC50) was 2.04 µM.
For the molecule `O=C(Nc1ccc(CC(=O)N2CCC(O)CC2)cc1)OCc1ccc(Cl)cc1` [Compound 119, (4-chlorophenyl)methyl N-{4-[2-(4-hydroxypiperidin-1-yl)-2-oxoethyl]phenyl}carbamate], the “AC1.4 Human” value is 0.95 µM and the EC50 was determined as 21.7 µM.
For the molecule `C[C@H](NC(=O)C1CCOCC1)c1ccc(NC(=O)OCc2ccc(Cl)cc2)cc1` [Compound 117, 4-chlorobenzyl (S)-(4-(1-(tetrahydro-2H-pyran-4-carboxamido)ethyl)phenyl)carbamate], the “AC1.4 Human” value worked out at 0.95 µM and the EC50 was determined as 8.14 µM.
The matching figures for `O=C(Nc1ccc(Cc2ccccc2)cc1)OCc1ccc(Cl)cc1` [Compound 307]: 5.02 µM and 5.55 µM.
The matching figures for `CN(C)S(=O)(=O)N1CCC(c2ccc(NC(=O)OCc3cnco3)cc2F)CC1` [Compound 416, oxazol-5-ylmethyl (4-(1-(N,N-dimethylsulfamoyl)piperidin-4-yl)-3-fluorophenyl)carbamate]: 0.07 µM and 2.58 µM.
Take `CC(C)c1ccc(C(=O)N[C@@H](C)c2ccc(NC(=O)OCc3ccc(Cl)cc3)cc2)cn1` [Compound 163, (4-chlorophenyl)methyl N-{4-[(1S)-1-[(6-isopropylpyridin-3-yl)formamido]ethyl]phenyl}carbamate]: the “AC1.4 Human” value came out at 1.37 µM and the EC50 came to 0.68 µM.
As to `CN1CC[C@H](NCc2ccc(NC(=O)OCc3ccc(Cl)cc3)cc2)C1=O` [Compound 228, 4-chlorobenzyl (S)-(4-(((1-methyl-2-oxopyrrolidin-3-yl)amino)methyl)phenyl)carbamate], the “AC1.4 Human” value is 2.11 µM and the half-maximal effective concentration (EC50) is 21.4 µM.
For `CC(=O)N1CCC(c2ccc(NC(=O)OCc3cnco3)cc2F)CC1` [Compound 413, oxazol-5-ylmethyl (4-(1-acetylpiperidin-4-yl)-3-fluorophenyl)carbamate], the “AC1.4 Human” value was 0.10 µM and the EC50 turned out to be 25.6 µM.
The like results for `O=C(Cc1ccc(NC(=O)OCc2ccc(Cl)cc2)cc1)N[C@H]1CC[C@H](OC(F)(F)F)CC1` [Compound 338, (4-chlorophenyl)methyl N-[4-({[(1r,4r)-4-(trifluoromethoxy)cyclohexyl]carbamoyl}methyl)phenyl]carbamate] were, in that order, 10.44 µM and 18.4 µM.
With `CC(C)C(=O)N1CCC(Cc2ccc(NC(=O)OCc3cnco3)cc2)CC1` [Compound 35, oxazol-5-ylmethyl (4-((1-isobutyrylpiperidin-4-yl)methyl)phenyl)carbamate], the “AC1.4 Human” value came out at 0.39 µM and the concentration for a half-maximal effect (EC50) worked out at 37.9 µM.
As for `CN(Cc1ccc(NC(=O)OCc2ccc(Cl)cc2)cc1)C(=O)c1ccc(C(F)F)nc1` [Compound 298, (4-chlorophenyl)methyl N-[4-({1-[6-(difluoromethyl)pyridin-3-yl]-N-methylformamido}methyl)phenyl]carbamate], the “AC1.4 Human” value was determined as 4.66 µM and the 50% effective concentration (EC50) is 20.4 µM.
Regarding `O=C(Nc1ccc(CC2CC3CCC(C2)N3S(=O)(=O)C2CCC2)cc1)OCc1cnco1` (stereo not drawn) [Compound 394, oxazol-5-ylmethyl (4-((8-(cyclobutylsulfonyl)-8-azabicyclo[3.2.1]octan-3-yl)methyl)phenyl)carbamate], the “AC1.4 Human” value came out at 0.19 µM and the half-maximal effective concentration (EC50) was 4.62 µM.
Regarding `CS(=O)(=O)N1CCC(c2ccc(NC(=O)OCc3cnco3)cc2F)CC1` [Compound 415, oxazol-5-ylmethyl (3-fluoro-4-(1-(methylsulfonyl)piperidin-4-yl)phenyl)carbamate], the “AC1.4 Human” value stood at 0.18 µM and the concentration giving a half-maximal response (EC50) worked out at 11.9 µM.
The matching figures for `COC(=O)N1CC2CC(C1)C2Cc1ccc(NC(=O)OCc2cnco2)cc1` (stereo not drawn) [Compound 435, methyl 6-(4-(((oxazol-5-ylmethoxy)carbonyl)amino)benzyl)-3-azabicyclo[3.1.1]heptane-3-carboxylate]: 0.08 µM and 7.52 µM.
With `CC(=O)N1CCC2(CC(c3ccc(NC(=O)OCc4cnco4)cc3F)C2)C1` (single isomer, unassigned) [Compound 373], the “AC1.4 Human” value worked out at 0.013 µM and the EC50 is 0.24 µM.
